Experiments:
[1] = log P by HPLC on reversed-phase column (EEC Directive 79/831 Annex V.A8); type: physicochemical; details: reversed-phase C18 HPLC column, pH 2.3, 43° C.
Description: The log P values given in the preparation examples and tables above are determined in accordance with EEC Directive 79/831 Annex V.A8 by HPLC (High Performance Liquid Chromatography) on a reversed-phase column (C 18). Temperature: 43° C.
In the acidic range, determination is carried out at pH 2.3 using the mobile phases 0.1% aqueous phosphoric acid and acetonitrile; linear gradient from 10% acetonitrile to 90% acetonitrile (in the tables marked with a)).
Calibration is carried out using unbranched alkan-2-ones (of 3 to 16 carbon atoms) with known lop P values (determination of the log P values by the retention times using linear interpolation between two successive alkanones).

[2] = tested on: Lucilia cuprina 1st instar larvae; test: Blowfly larval assay (Lucilia cuprina); type: in vivo; details: 100 ppm
Description: (§1) 10 mg active compound are dissolve in 0.5 ml dimethyl sulphoxide. Serial dilutions are made to obtain the desired rates.
Approximately 20 Lucilia cuprina 1st instar larvae are transferred into a test tube containing 1 cm^3 of minced horse meat and 0.5 ml aqueous dilution of test compound. After 48 hrs percentage of larval mortality are recorded.
100% efficacy=all larvae are killed 0% efficacy=normally developed larvae after 48 hrs

[3] = tested on: Boophilus microplus (SP-resistant Parkhurst strain); test: Boophilus microplus test (INJ), resistant cattle tick, injection method; type: in vivo; details: concentration of active compound 20 μM, injection into abdomen of adult satiated females
Description: Test with Resistant Monoxenic Cattle Tick/SP-Resistant Parkhurst Strain Injection Method
Boophilus microplus (INJ)
10 mg active compound are dissolve in 0.5 ml Dimethylsulfoxid. Serial dilutions are made to obtain the desired rates.
The test is carried out in 5 replications. 1 μl of the solutions is injected into the abdomen, and the animals are transferred to dishes and kept in a climate-controlled room. After 7 days, activity is checked by examination for deposition of fertile eggs. Eggs whose fertility is not externally visible are stored in glass tubes in a controlled-environment cabinet until the larvae have hatched after ca. 24 days. An activity of 100% denotes that none of the ticks has laid fertile eggs.

Musca domestica = test: Housefly assay (Musca domestica); type: in vivo; details: 100 ppm, adult flies
Description: as §1
Prior to the assay, a piece of kitchen sponge (ca. Ø 1.5 cm) is soaked with 0.8 ml of sugar solution and 0.2 ml of aqueous compound dilution and is placed into a container (4×4×2 cm). 10 adult Musca domestica flies (WHO/N strain) are anaesthetized by CO2 and also placed into the container. The container is closed with a perforated lid. […]
100% efficacy=all flies are killed 0% efficacy=no flies are killed

Plutella xylostella = test: Plutella test; type: in vivo; details: 20 ppm, cabbage leaves dipped
Description: (§2) To produce a suitable preparation of active compound, 1 part by weight of active compound is mixed with the stated amounts of solvent and emulsifier, and the concentrate is diluted with emulsifier-containing water to the desired concentration.
Cabbage leaves (Brassica oleracea) are treated by being dipped into the preparation of active compound of the desired concentration and are populated with caterpillars of the diamondback moth (Plutella xylostella) while the leaves are still moist.
(§3) After the desired period of time, the kill in % is determined. 100% means that all caterpillars have been killed; 0% means that none of the caterpillars have been killed.

Spodoptera exigua = Spodoptera exigua test; type: in vivo; details: 168 h, cabbage leaves dipped, after 7 d, read-out: Kill rate in % after 7 d
Description: as §2
Cabbage leaves (Brassica oleracea) are treated by being dipped into the preparation of active compound of the desired concentration and are populated with caterpillars of the army worm (Spodoptera exigua) while the leaves are still moist.
as §3

Myzus persicae = test: Myzus test (spray application); type: in vivo; details: topical, 120 h, spray on Chinese cabbage leaves, after 5 d, read-out: Kill rate in % after 5 d
Description: Myzus Test (Spray Application)
as §2
Chinese cabbage leaves (Brassica pekinensis), which are infested by the green peach aphid (Myzus persicae), are treated by being sprayed with the preparation of the active compound of the desired concentration.
(§4) After the specified period of time, the mortality in % is determined. 100% means that all the […] have been killed; 0% means that none of the […] have been killed.

Tetranychus urticae = test: Tetranychus test (OP-resistant/spray application); type: in vivo; details: 100 g/ha, spray on bean leaf slices
Description: Tetranychus test (OP-Resistant/Spray Application)
as §2
Bean leave slices (Phaseolus vulgaris), which are infested with all stages of the two-spotted spider mite (Tetranychus urticae), are treated by being sprayed with the preparation of the active compound of the desired concentration.
as §4

Spodoptera frugiperda = Spodoptera frugiperda test (spray application); type: in vivo; details: topical, 168 h, 20 g/ha, spray on maize leaf slices, after 7 d, read-out: Kill rate in % after 7 d
Description: Spodoptera frugiperda Test (Spray Application)
as §2
Maize leave slices (Zea mays) are treated by being sprayed with the preparation of the active compound of the desired concentration and are infested with caterpillars of the fall army worm (Spodoptera frugiperda) after the leaves have dried.
as §4

Cc1cc(C(F)(C(F)F)C(F)(F)F)ccc1N (stereo not drawn) [4-(1-Difluoromethyl-1,2,2,2-tetrafluoro-ethyl)-2-methyl-phenylamine]
chromatographic logP [1]: 2.74

Cc1cc(C(C(F)F)C(F)(F)F)ccc1N (stereo not drawn) [4-(1-Difluoromethyl-2,2,2-trifluoro-ethyl)-2-methyl-phenylamine]
chromatographic logP [1]: 2.02

CSC[C@H](C)N=C1OC(=O)c2cccc(I)c21 [4-Iodo-3-[(S)-1-methyl-2-methylsulfanyl-ethylimino]-3H-isobenzofuran-1-one]
chromatographic logP [1]: 3.87

CCSC[C@H](C)NC(=O)c1c(I)cccc1C(=O)Nc1ccc(C(F)(C(F)(F)F)C(F)(F)Br)cc1C (stereo partly drawn) [Compound 1]
Kill rate in % after 2 d [2]: 100%

CCSC[C@H](C)NC(=O)c1c(I)cccc1C(=O)Nc1ccc(C(C(F)F)C(F)(F)F)cc1C (stereo partly drawn) [Compound 4]
Kill rate in % after 7 d [3]: 100%
Kill rate in % after 2 d [2]: 100%

CCSC[C@H](C)NC(=O)c1c(I)cccc1C(=O)Nc1ccc(C(F)(C(F)F)C(F)(F)F)cc1C (stereo partly drawn) [Compound 5]
Kill rate in % after 7 d [3]: 100%
Kill rate in % after 4 d (Musca domestica): 100%
melting point: 105 °C

CSC[C@H](C)NC(=O)c1c(I)cccc1C(=O)Nc1ccc(C(C(F)F)C(F)(F)F)cc1C (stereo partly drawn) [Compound 11]
Kill rate in % after 7 d (Plutella xylostella): 100%
melting point: 184 °C

Cc1cc(C(F)(C(F)F)C(F)(F)F)ccc1NC(=O)c1cccc(I)c1C(=O)N[C@@H](C)CS(C)(=O)=O (stereo partly drawn) [Compound 18]
Kill rate in % after 7 d (Plutella xylostella): 100%
melting point: 124 °C

CCSC[C@H](C)NC(=O)c1c(I)cccc1C(=O)Nc1ccc(C(C(F)F)C(F)(F)F)cc1F (stereo partly drawn) [Compound 21]
Kill rate in % after 4 d (Musca domestica): 100%
melting point: 144 °C

CCSC[C@H](C)NC(=O)c1c(I)cccc1C(=O)Nc1ccc(C(C(F)F)C(F)(F)F)cc1Cl (stereo partly drawn) [Compound 23]
Kill rate in % after 7 d [3]: 100%
melting point: 165 °C

CCSC[C@H](C)NC(=O)c1c(I)cccc1C(=O)Nc1ccc(C(C(F)F)C(F)(F)F)cc1Br (stereo partly drawn) [Compound 24]
Kill rate in % after 7 d [3]: 100%
melting point: 160 °C

CCS(=O)(=O)C[C@H](C)NC(=O)c1c(I)cccc1C(=O)Nc1ccc(C(F)(C(F)F)C(F)(F)F)cc1Cl (stereo partly drawn) [Compound 25]
Kill rate in % after 2 d [2]: 90%

C[C@@H](CS(C)(=O)=O)NC(=O)c1c(I)cccc1C(=O)Nc1ccc(C(F)(C(F)F)C(F)(F)F)cc1Cl (stereo partly drawn) [Compound 27]
pest or weed control at 20 ppm (Spodoptera exigua): 100%
melting point: 184 °C

C[C@@H](CS(C)(=O)=O)NC(=O)c1c(I)cccc1C(=O)Nc1ccc(C(C(F)F)C(F)(F)F)cc1Cl (stereo partly drawn) [Compound 28]
Kill rate in % after 4 d (Musca domestica): 100%
melting point: 116 to 120 °C

C[C@@H](CS(C)(=O)=O)NC(=O)c1c(I)cccc1C(=O)Nc1ccc(C(C(F)F)C(F)(F)F)cc1Br (stereo partly drawn) [Compound 31]
Kill rate in % after 4 d (Musca domestica): 100%
pest or weed control at 100 g/ha (Myzus persicae): 100%

C[C@@H](CS(C)(=O)=O)NC(=O)c1c(I)cccc1C(=O)Nc1ccc(C(F)(C(F)F)C(F)(F)F)cc1F (stereo partly drawn) [Compound 32]
Kill rate in % after 2 d [2]: 100%
Kill rate in % after 4 d (Musca domestica): 100%

C[C@@H](CS(C)(=O)=O)NC(=O)c1c(I)cccc1C(=O)Nc1ccc(C(C(F)F)C(F)(F)F)cc1F (stereo partly drawn) [Compound 33]
Kill rate in % after 7 d [3]: 100%
Kill rate in % after 4 d (Musca domestica): 100%
melting point: 144 to 147 °C

CCS(=O)(=O)C[C@H](C)NC(=O)c1c(I)cccc1C(=O)Nc1ccc(C(F)(C(F)F)C(F)(F)F)cc1Br (stereo partly drawn) [Compound 34]
pest or weed control at 20 ppm (Spodoptera exigua): 100%
melting point: 134 °C

CCS(=O)(=O)C[C@H](C)NC(=O)c1c(I)cccc1C(=O)Nc1ccc(C(C(F)F)C(F)(F)F)cc1Br (stereo partly drawn) [Compound 35]
Kill rate in % after 4 d (Musca domestica): 100%
melting point: 122 °C

CCS(=O)(=O)C[C@H](C)NC(=O)c1c(I)cccc1C(=O)Nc1ccc(C(F)(C(F)F)C(F)(F)F)cc1F (stereo partly drawn) [Compound 36]
Kill rate in % after 2 d [2]: 100%

CCS(=O)(=O)C[C@H](C)NC(=O)c1c(I)cccc1C(=O)Nc1ccc(C(C(F)F)C(F)(F)F)cc1F (stereo partly drawn) [Compound 37]
Kill rate in % after 2 d [2]: 100%

CSC[C@H](C)NC(=O)c1c(Cl)cccc1C(=O)Nc1ccc(C(F)(C(F)(F)F)C(F)(F)Br)cc1C (stereo partly drawn) [Compound 38]
Kill rate in % after 7 d (Plutella xylostella): 100%
melting point: 184 to 186 °C

CSC[C@H](C)NC(=O)c1c(Cl)cccc1C(=O)Nc1ccc(C(C(F)F)C(F)(F)F)cc1Cl (stereo partly drawn) [Compound 42]
Kill rate in % after 5 d (Tetranychus urticae): 80%

Cc1cc(C(F)(C(F)F)C(F)(F)F)ccc1NC(=O)c1cccc(Cl)c1C(=O)N[C@@H](C)CS(C)(=O)=O (stereo partly drawn) [Compound 44]
Kill rate in % after 7 d (Plutella xylostella): 100%
Kill rate in % after 5 d (Tetranychus urticae): 80%

C[C@@H](CS(C)(=O)=O)NC(=O)c1c(Cl)cccc1C(=O)Nc1ccc(C(F)(C(F)F)C(F)(F)F)cc1Cl (stereo partly drawn) [Compound 47]
pest or weed control at 20 ppm (Spodoptera exigua): 100%
melting point: 180 °C

CCSC[C@H](C)NC(=O)c1c(Br)cccc1C(=O)Nc1ccc(C(C(F)F)C(F)(F)F)cc1Cl (stereo partly drawn) [Compound 54]
Kill rate in % after 7 d (Plutella xylostella): 100%
melting point: 100 °C

CCS(=O)(=O)C[C@H](C)NC(=O)c1c(Cl)cccc1C(=O)Nc1ccc(C(C(F)F)C(F)(F)F)cc1Cl (stereo partly drawn) [Compound 56]
pest or weed control at 20 ppm (Spodoptera exigua): 100%
melting point: 116 °C

CCS(=O)(=O)C[C@H](C)NC(=O)c1c(Br)cccc1C(=O)Nc1ccc(C(C(F)F)C(F)(F)F)cc1Cl (stereo partly drawn) [Compound 59]
pest or weed control at 20 ppm (Spodoptera exigua): 100%
melting point: 121 °C

CSC[C@H](C)NC(=O)c1c(Br)cccc1C(=O)Nc1ccc(C(F)(C(F)F)C(F)(F)F)cc1Br (stereo partly drawn) [Compound 67]
Kill rate in % after 7 d (Plutella xylostella): 100%
melting point: 138 to 142 °C

CCS(=O)(=O)C[C@H](C)NC(=O)c1c(Br)cccc1C(=O)Nc1ccc(C(F)(C(F)F)C(F)(F)F)cc1Br (stereo partly drawn) [Compound 69]
Kill rate in % after 2 d [2]: 100%
pest or weed control at 20 g/ha (Spodoptera frugiperda): 100%
